Results published in patent US20240398943A1, “METHODS OF TREATING CANCER AND THE PHARMACEUTICAL COMPOSITIONS THEREOF” (SYSTIMMUNE, INC., priority 2021, published 2024).
Values joined by “and” are separate entries in the source; they are usually repeats but may differ in a detail not shown here. Equal entries are not always repeated. Where two headings read alike, the source gives them in different places.

Columns and labels:
[1] = system: NCI-H1975 cells (EGFR L858R/T790M) tumor xenograft
Procedure: (§1) Xenotransplantation of human cancer cells into immunocompromised mice is a gold-standard model used for pre-clinical oncology research and testing of anti-cancer therapies. In general, human cancer cell lines are injected below the skin of the mouse. […] The primary outcome parameter is growth inhibition by the drug, for which tumor size is measured over time, often externally with calipers. After the tumor reaches a certain size, the mice are euthanized. Drug effects on the tumor are further analyzed on a tissue level or molecular level (e.g., DNA, proteins). The primary outcome parameter of a xenograft model for testing drug efficacy is the growth of the treated tumor versus control. Typically, xenograft tumors grow from 100 mm^3 (6 mm diameter) to 1000 mm^3 (12 mm diameter) in several weeks. The growth rate often declines with larger tumor sizes, as opposed to exponential growth in (2D) in vitro experiments. Tumor growth inhibition varies per drug and implanted cell line. The effect of therapeutics can be directly on tumor cells, or indirectly via the microenvironment such as the inhibition of vessel formation, or both.
(§2) The experiment animals used were of Balb/c-nu mouse, female, ages 5^˜7 weeks, weight 17^˜21 g.
(§3) To establish xenograft model of NSCLC, two lung cancer cell lines expressing were used. Human lung adenocarcinoma cell line HCC827_936 was clonally derived from HCC827 cell line isolated from NSCLC tissue of a patient (ATCC). HCC827_936 cells express EGFR mutations of exon19del and exon20ins. The other lung cancer cell line, NCI-H1975 cells (ATCC), express the EGFR L858R/T790M double mutation.
(§4) Each of the three human cancer cell lines was cultured in RPMI1640 medium containing 10% fetal bovine serum, collected in the exponential growth phase, resuspended in PBS to a suitable concentration, and used for subcutaneous tumor implantation in mice.
When the tumor grew to an average volume of about 170 mm^3, randomly grouped according to tumor size and mouse weight to establish […] NCI-H1975 xenograft model.
(§5) Tumor volume (mm^3) V=½×[…], where a represents the long diameter and b represents the short diameter. Relative tumor volume (RTV), RTV=Vt/V0, where V0 is the tumor volume at time 0 and Vt is the tumor volume after treatment at time t. The T/C value (%) is an indicator of the tumor response to treatment and is the most used evaluation indicator. T/C %=TRTV/CRTV×100%, where TRTV is treatment group average RTV and CRTV is control group average RTV. The T/C value (%) can also be calculated as T/C %=TTW/CTW×100%, where TTW is the average tumor weight at the end of the treatment group experiment and CTW is the average tumor weight at the end of the control group experiment.

[2] = system: HCC827_936 cells (EGFR exon19del and exon20ins) tumor xenograft
Procedure: as §1, §2, §3, §4
When the tumor grew to an average volume of about 163 mm^3, randomly grouped according to tumor size and mouse weight to establish HCC827_936 xenograft model.
as §5

[3] = system: FaDu cells (wild type EGFR) tumor xenograft
Procedure: as §1, §2
To establish xenograft model of HNSCC, human head and neck cancer cells, FaDu cells, were transplanted into the mice to establish the xenograft model of HNSCC. FaDu is a cell line isolated from a hypopharyngeal tumor of a squamous cell carcinoma patient, which expresses wild type EGFR (ATCC).
as §4
When the tumor grew to an average volume of about 230 mm3, randomly grouped according to tumor size and mouse weight to establish human head and neck squamous cell carcinoma cells FaDu xenograft model.
as §5, with “(mm3)” for “(mm^3)”

[4] = Osimertinib 96 mg/kg p.o. QD, Day 25
[5] = Osimertinib 96 mg/kg/wk p.o. QD, Day 31

Row | Compound | T/C [1, 4] [%] | Tumor volume x ± SD [1, 4] [mm^3] | TGI ([1]; mouse, in vivo) | Tumor volume x ± SD ([1]; mouse, in vivo) [mm^3] | mice died before D25 ([1]; mouse, in vivo) | T/C [2, 5] [%] | Tumor volume x ± SD [2, 5] [mm^3] | mortality rate ([2]; Osimertinib single-agent (96 mg/kg), before D31) [%] | mice died before D31 ([2]; female, Balb/c-nu, mouse, in vivo) | TGI ([2]; mouse, in vivo) | Tumor volume x ± SD ([2]; mouse, in vivo) [mm^3] | body weight / weight loss ([3]; all dose groups of the treatment) | death of mice before the end of the experiment ([3]; all dose groups of the treatment, 5 mice per group) | mortality rate ([3]; paclitaxel 20.6 + carboplatin 28 mg/kg i.v. QW) [%] | mice with severe weight loss (>20%) before death ([3]; paclitaxel 20.6 + carboplatin 28 mg/kg i.v. QW, of the 4 mice that died) | TGI ([3]; paclitaxel […] + carboplatin 28 mg/kg i.v. QW) [%]
1 | C=CC(=O)Nc1cc(Nc2nccc(-c3cn(C)c4ccccc34)n2)c(OC)cc1N(C)CCN(C)C [Osimertinib] | 4.7 | 75.02 | 95.35% and 95.4% | 75.0 ± 60.3 | no mouse died | 45.1 | 344.53 | 60 | 3 | 54.89% and 54.9% | 344.5 ± 23.6 | – | – | – | – | –
2 | paclitaxel+carboplatin | – | – | – | – | – | – | – | – | – | – | – | fluctuated significantly | 4 | 80 | 3 | 56.16
